Experimental findings from ChEMBL document CHEMBL1156042, “First stereoselective total synthesis and anticancer activity of new amide alkaloids of roots of pepper” (Bioorg Med Chem Lett, 2009) are described below.

Values after ≈ are worked out from the molar mass of the structure shown.

Holding throughout (type): functional, cell-based
One assay has as its system A549. The assay is described as follows: Anticancer activity against human A549 cells by MTT method. In general terms: Formazan colour is commonly taken as a measure of viable cells.
In the next assay the test system is MCF7. The assay is described as follows: Anticancer activity against human MCF7 cells by MTT method.
Another assay relates to HT-29. The assay is described as follows: Anticancer activity against human HT-29 cells by MTT method.
[1] abbreviates: Homo sapiens, A549, read-out: IC50.
The mark [2] stands for this setting: Homo sapiens, HT-29, read-out: IC50.

By IC50 is commonly meant the concentration at which inhibition is half-maximal. As for `CCCCC[C@@H](O)[C@H](O)/C=C/C(=O)N1CCCCC1`, the IC50 was 135 µg/mL (≈ 501 µM) in the assay with A549 (setting [1]), “Not Active” with MCF7 and 125 µg/mL (≈ 464 µM) with HT-29 (setting [2]).
In the case of `CCC[C@@H](O)[C@H](O)/C=C/C(=O)NCC(C)C`, the results for the IC50 entry with A549 (a549), in the assay with MCF7 and with HT-29 (setting [2]) were “Not Active”, “Not Active” and 181 µg/mL (≈ 789 µM), respectively.
`CCCCC[C@@H](O)[C@@H](O)/C=C/C(=O)N1CCCCC1`: the IC50 was 182 µg/mL (≈ 676 µM) with A549 (setting [1]), “Not Active” with MCF7 and “Not Active” with HT-29 (ht-29).
